In the supplement of paper PMC10307832:

Columns and labels:
Experiment in all cases: relative viability (nuclei count vs DMSO), 5 days (fraction); higher = more cells survive
BMX-IN-1 + Navitoclax = compound: C=CC(=O)Nc1cc(-n2c(=O)ccc3cnc4ccc(-c5ccc(NS(C)(=O)=O)cc5)cc4c32)ccc1C [BMX-IN-1] + CC1(C)CCC(c2ccc(Cl)cc2)=C(CN2CCN(c3ccc(C(=O)NS(=O)(=O)c4ccc(N[C@H](CCN5CCOCC5)CSc5ccccc5)c(S(=O)(=O)C(F)(F)F)c4)cc3)CC2)C1 [Navitoclax] (partner 0.5 µM)
Summary of the method: (§1)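 Each reported value is a median over duplicate plates. It expresses relative viability: treated-well nuclei count divided by vehicle-well nuclei count. Lung cancer cell lines in 1536-well plates were dosed by pin tool a day after seeding, alone with one drug or with a fixed anchor-drug dose plus five library-drug doses (not always all listed) in √10 steps, and nuclei were counted after 5 days.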

BMX-IN-1 + Foretinib = compound: C=CC(=O)Nc1cc(-n2c(=O)ccc3cnc4ccc(-c5ccc(NS(C)(=O)=O)cc5)cc4c32)ccc1C [BMX-IN-1] + COc1cc2c(Oc3ccc(NC(=O)C4(C(=O)Nc5ccc(F)cc5)CC4)cc3F)ccnc2cc1OCCCN1CCOCC1 [Foretinib] (partner 0.25 µM)
Summary of the method: as §1

BMX-IN-1 + Alpelisib = compound: C=CC(=O)Nc1cc(-n2c(=O)ccc3cnc4ccc(-c5ccc(NS(C)(=O)=O)cc5)cc4c32)ccc1C [BMX-IN-1] + Cc1nc(NC(=O)N2CCC[C@H]2C(N)=O)sc1-c1ccnc(C(C)(C)C(F)(F)F)c1 [Alpelisib] (partner 2 µM)
Summary of the method: as §1

PAC-1 + Trametinib = compound: C=CCc1cccc(/C=N/NC(=O)CN2CCN(Cc3ccccc3)CC2)c1O [PAC-1] + CC(=O)Nc1cccc(-n2c(=O)n(C3CC3)c(=O)c3c(Nc4ccc(I)cc4F)n(C)c(=O)c(C)c32)c1 [Trametinib] (partner 0.02 µM)
Summary of the method: as §1

PAC-1 + Dasatinib = compound: C=CCc1cccc(/C=N/NC(=O)CN2CCN(Cc3ccccc3)CC2)c1O [PAC-1] + Cc1nc(Nc2ncc(C(=O)Nc3c(C)cccc3Cl)s2)cc(N2CCN(CCO)CC2)n1 [Dasatinib] (partner 0.075 µM)
Summary of the method: as §1

Cell Line	relative viability (BMX-IN-1 + Navitoclax; first compound 0.02 µM)	relative viability (BMX-IN-1 + Navitoclax; first compound 0.2 µM)	relative viability (BMX-IN-1 + Navitoclax; first compound 0.6325 µM)	relative viability (BMX-IN-1 + Navitoclax; first compound 2 µM)	relative viability (BMX-IN-1 + Foretinib; first compound 0.02 µM)	relative viability (BMX-IN-1 + Foretinib; first compound 0.2 µM)	relative viability (BMX-IN-1 + Foretinib; first compound 0.6325 µM)	relative viability (BMX-IN-1 + Foretinib; first compound 2 µM)	relative viability (BMX-IN-1 + Alpelisib; first compound 0.02 µM)	relative viability (BMX-IN-1 + Alpelisib; first compound 0.2 µM)	relative viability (BMX-IN-1 + Alpelisib; first compound 0.6325 µM)	relative viability (BMX-IN-1 + Alpelisib; first compound 2 µM)	relative viability (PAC-1 + Trametinib; first compound 0.02 µM)	relative viability (PAC-1 + Trametinib; first compound 0.06325 µM)	relative viability (PAC-1 + Trametinib; first compound 0.2 µM)	relative viability (PAC-1 + Trametinib; first compound 2 µM)	relative viability (PAC-1 + Dasatinib; first compound 0.02 µM)	relative viability (PAC-1 + Dasatinib; first compound 0.06325 µM)	relative viability (PAC-1 + Dasatinib; first compound 0.2 µM)	relative viability (PAC-1 + Dasatinib; first compound 2 µM)
LC-2-ad	0.55	0.504	0.776	0.513	0.878	0.926	0.975	0.946	0.915	0.962	0.998	0.898	0.933	0.919	0.897	0.954	0.552	0.629	0.603	0.489
NCI-H727	0.333	0.443	0.471	0.426	1.37	0.933	0.893	1.01	0.499	0.671	0.766	0.578	0.348	0.394	0.414	0.414	0.334	0.338	0.368	0.358
COR-L23	1.52	1.46	1.14	1.02	1.18	1.1	1.19	0.914	0.95	0.962	0.926	0.921	0.586	0.66		0.673	0.472	0.48	0.453	0.506
NCI-H3122	1.1	1.06	1.02	1.05	1	0.951	0.957	0.984	0.815	0.879	0.657	0.812	0.213	0.253	0.205	0.189	0.828	0.811	0.857	0.764
NCI-H322M	0.848	1.18	1.24	1.16	1.13	0.958	0.967	0.941	0.882	0.825	0.757	0.772	0.498	0.575	0.542	0.503	0.226	0.264	0.259	0.256
NCI-H441	0.466	0.85	1.08	0.755	1.26	1.05	1.14	0.876	0.658	0.917	1.04	0.641	0.408	0.629	0.482	0.411	0.593	0.628	0.438	0.573
NCI-H2347	0.978	0.887	0.785	0.871	0.826	1.03	1.36	0.854	1.25	1.07	1.16	0.974	0.309	0.285	0.297	0.269	0.28	0.3	0.312	0.362
HCC-827	1.02	0.992	1	1.03	1.01	1.02	1.03	1.03	0.95	0.889	1.05	0.946	0.505	0.569	0.528	0.536	0.277	0.325	0.297	0.293
LOU-NH91		0.695	0.773	0.683	0.938		1.01	0.942		0.686	0.768	0.709	0.776	0.776	0.782	0.817	0.505	0.551	0.541	0.599
NCI-H1651	1.24	1.2	1.02	1.04	1	0.907	0.909	0.773	1.07	1.06	0.943	0.863	0.85	0.862	0.765	0.855	0.391	0.446	0.394	0.393
PC-3 [JPC-3]	0.728	0.823	0.746	0.871	1.12	1.16	1.09	1	1.17	1.06	1.09	1.09	0.613	0.692	0.711	0.726	1.06	0.986	0.981	0.975
NCI-H596	0.906	1.08	1.07	0.816	0.953	1.25	0.872	0.714	0.511	0.535	0.544	0.54	0.704	0.802	0.801	0.87	0.571	0.659	0.573	0.664
NCI-H838	1.39	1.33	1.21	1.18	1.3	1.25	1.24	0.982	1.18	0.961	1.06	1.04	0.46	0.509	0.459	0.528	0.247	0.278	0.243	0.311
NCI-H647	1.52	1.23	1.03	1.16	1.32	1.58	1.14	1.21	1.25	1.32	1.36	0.974	0.456	0.535	0.446	0.399	0.203	0.172	0.185	0.164
HCC-366	1.54	1.29	1.15	1.05	1.03	0.962	1.01	0.886	0.704	0.575	0.412	0.354	0.339	0.318	0.312	0.365	0.618	0.558	0.617	0.733
